Laboratory results as given in patent US12577234B2, “Antagonists of the muscarinic acetylcholine receptor M4” (Vanderbilt University, priority 2017, dated 2026).
pIC50: −log10 of the molar value.

Biological target: T1, human mAChR M4 (Homo sapiens, UniProt P08173)
T1 construct: expressed in transfected cells; host or cells: CHO-K1 (ATCC), stably co-expressing chimeric G protein Gqi5
T1 sequence (P08173 1-479): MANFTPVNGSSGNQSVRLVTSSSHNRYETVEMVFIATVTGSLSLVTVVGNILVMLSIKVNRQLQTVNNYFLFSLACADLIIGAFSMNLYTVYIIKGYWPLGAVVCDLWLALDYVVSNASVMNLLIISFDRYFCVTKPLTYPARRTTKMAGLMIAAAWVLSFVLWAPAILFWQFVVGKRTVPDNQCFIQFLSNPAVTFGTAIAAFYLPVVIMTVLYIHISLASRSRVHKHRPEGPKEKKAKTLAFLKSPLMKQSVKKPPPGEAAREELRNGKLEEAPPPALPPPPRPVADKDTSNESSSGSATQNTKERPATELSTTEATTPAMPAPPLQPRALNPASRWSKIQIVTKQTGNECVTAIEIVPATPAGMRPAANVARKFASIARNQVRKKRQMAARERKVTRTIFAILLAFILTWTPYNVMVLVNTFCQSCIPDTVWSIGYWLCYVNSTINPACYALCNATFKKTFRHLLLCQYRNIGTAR
Assay: mAChR M4 cell-based functional assay (calcium mobilization, EC80 acetylcholine), human M4
Details: for Emin: human M4, % ACh maximum at 30 μM; for pIC50: M4/Gqi5/CHO-K1 cells, decrease of EC80 acetylcholine response
Experimental: Human or rat M4 cDNA, along with the chimeric G protein Gqi5, were transfected into Chinese hamster ovary (CHO-K1) cells purchased from the American Type Culture Collection using Lipofectamine2000. M4/Gqi5/CHO cells were grown in Ham's F-12 medium containing 10% heat-inactivated fetal bovine serum (FBS), 20 mM HEPES, 500 μg/mL G418 sulfate, and 200 μg/mL Hygromycin B.
For high throughput measurement of agonist-evoked increases in intracellular calcium, CHO-K1 cells stably expressing muscarinic receptors were plated in growth medium lacking G418 and hygromycin at 15,000 cells/20 μL/well in Greiner 384-well black-walled, tissue culture (TC)-treated, clear-bottom plates (VWR). Cells were incubated overnight at 37° C. and 5% CO2. […] Compound master plates were formatted in a 10 point concentration-response curve (CRC) format (1:3 dilutions) in 100% DMSO with a starting concentration of 10 or 1 mM using a BRAVO liquid handler (Agilent). Test compound CRCs were then transferred to daughter plates (240 nL) using the Echo acoustic plate reformatter (Labcyte, Sunnyvale, CA) and then diluted into assay buffer (40 μL) to a 2× stock using a Thermo Fisher Combi (Thermo Fisher Scientific, Waltham, MA).
Calcium flux was measured using the Functional Drug Screening System (FDSS) 6000 or 7000 (Hamamatsu Corporation, Tokyo, Japan) as an increase in the fluorescent static ratio. Compounds were applied to cells (20 μL, 2×) using the automated system of the FDSS at 2 seconds into the protocol and the data were collected at 1 Hz. […] Agonist activity was analyzed as a concentration-dependent increase in calcium mobilization upon compound addition. Positive allosteric modulator activity was analyzed as a concentration-dependent increase in the EC20 acetylcholine response. Antagonist activity was analyzed as a concentration-dependent decrease in the EC80 acetylcholine response; for the purposes of the tables herein, an IC50 (inhibitory concentration 50) was calculated as a concentration-dependent decrease of the response elicited by an EC80 concentration of acetylcholine. Concentration-response curves were generated using a four-parameter logistical equation in XLFit curve fitting software (IDBS, Bridgewater, NJ) for Excel (Microsoft, Redmond, WA) or Prism (GraphPad Software, Inc., San Diego, CA) or the Dotmatics software platform (Dotmatics, Bishop's Stortford, UK).

SMILES | Emin (Table 9) [%] | IC50 (Table 9, μM) [µM] | pIC50 (Table 9) | Human M4 Emin (Table 10) [%] | pIC50 (Table 10)
Fc1ccc(Cl)c(-c2ccc(O[C@@H]3C[C@@H]4CN(CC5CCOCC5)C[C@@H]4C3)nn2)c1 [Compound 59, (3aR,5r,6aS)-5-[6-(2-chloro-5-fluoro-phenyl)pyridazin-3-yl]oxy-2-(tetrahydropyran-4-ylmethyl)-3,3a,4,5,6,6a-hexahydro-1H-cyclopenta[c]pyrrole] | 20.7 | > 10 |  |  | 
CCC(C)CN1C[C@H]2C[C@H](Nc3ccc(-c4c(C)cnn4C)nn3)C[C@H]2C1 (stereo partly drawn) [Compound 18, (3aR,5s,6aS)-N-[6-(2,4-dimethylpyrazol-3-yl)pyridazin-3-yl]-2-(2-methylbutyl)-3,3a,4,5,6,6a-hexahydro-1H-cyclopenta[c]pyrrol-5-amine] | 2.90 |  | 7.04 |  | 
Cc1nn(C)cc1-c1ccc(O[C@@H]2C[C@@H]3CN(CC4CCCOC4)C[C@@H]3C2)nn1 (stereo partly drawn) [Compound 51, (3aR,5r,6aS)-5-[6-(1,3-dimethylpyrazol-4-yl)pyridazin-3-yl]oxy-2-(tetrahydropyran-3-ylmethyl)-3,3a,4,5,6,6a-hexahydro-1H-cyclopenta[c]pyrrole] | 19.8 |  | 5.11 |  | 
Cc1cnn(C)c1-c1ccc(OCC2C[C@@H]3CN(Cc4ccccc4)C[C@@H]3C2)nn1 (stereo partly drawn) [Compound 86, (3aR,6aS)-2-benzyl-5-[[6-(2,4-dimethylpyrazol-3-yl)pyridazin-3-yl]oxymethyl]-3,3a,4,5,6,6a-hexahydro-1H-cyclopenta[c]pyrrole] | 9.09 |  | 5.54 |  | 
Cc1nn(C)cc1-c1ccc(OCC2C[C@@H]3CN(CC4CCCOC4)C[C@@H]3C2)nn1 (stereo partly drawn) [Compound 99, (3aR,6aS)-5-[[6-(1,3-dimethylpyrazol-4-yl)pyridazin-3-yl]oxymethyl]-2-(tetrahydropyran-3-ylmethyl)-3,3a,4,5,6,6a-hexahydro-1H-cyclopenta[c]pyrrole] | 7.75 |  | 5.60 |  | 

The remaining lines, values ahead:

Emin (Table 9) [%] | IC50 (Table 9, μM) [µM] | pIC50 (Table 9) | Human M4 Emin (Table 10) [%] | pIC50 (Table 10) | SMILES
9.93 |  | 5.25 |  |  | Fc1ccc(Cl)c(-c2ccc(OCC3C[C@@H]4CN(Cc5ccccc5F)C[C@@H]4C3)nn2)c1 (stereo partly drawn) [Compound 115, (3aR,6aS)-5-[[6-(2-chloro-5-fluoro-phenyl)pyridazin-3-yl]oxymethyl]-2-[(2-fluorophenyl)methyl]-3,3a,4,5,6,6a-hexahydro-1H-cyclopenta[c]pyrrole]
 |  |  | 16 | 7.67 | CC(C)(O)c1cccc(-c2ccc(N[C@H]3C[C@@H]4CN(CC5CCOCC5)C[C@@H]4C3)nn2)c1 [Compound 216, 2-[3-[6-[[(3aR,5s,6aS)-2-(tetrahydropyran-4-ylmethyl)-3,3a,4,5,6,6a-hexahydro-1H-cyclopenta[c]pyrrol-5-yl]amino]pyridazin-3-yl]phenyl]propan-2-ol]
 |  |  | 9 | 8.74 | c1cc(-c2ccc(N[C@H]3C[C@@H]4CN(CC5CCOCC5)C[C@@H]4C3)nn2)ccn1 [Compound 219, (3aR,5s,6aS)-N-[6-(4-pyridyl)pyridazin-3-yl]-2-(tetrahydropyran-4-ylmethyl)-3,3a,4,5,6,6a-hexahydro-1H-cyclopenta[c]pyrrol-5-amine]
3.59 |  | 7.33 |  |  | Cc1cnn(C)c1-c1ccc(NCCC2C[C@@H]3CN(CC45CC6CC(CC(C6)C4)C5)C[C@@H]3C2)nn1 (stereo partly drawn) [Compound 121, N-[2-[(3aR,6aS)-2-(1-adamantylmethyl)-3,3a,4,5,6,6a-hexahydro-1H-cyclopenta[c]pyrrol-5-yl]ethyl]-6-(2,4-dimethylpyrazol-3-yl)pyridazin-3-amine]
 |  |  | 9 | 8.90 | c1ccc(-c2ccc(N[C@H]3C[C@@H]4CN(CC5CCOCC5)C[C@@H]4C3)nn2)cc1 [Compound 197, (3aR,5s,6aS)-N-(6-phenylpyridazin-3-yl)-2-(tetrahydropyran-4-ylmethyl)-3,3a,4,5,6,6a-hexahydro-1H-cyclopenta[c]pyrrol-5-amine]
